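Cultured in 96-well plates, cells were exposed to test compound for 48 hours across five concentrations. GI50 marks 50% less growth.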 Calls of active or inactive are those of the source. Cut-off read from the data, not from the text of the source: active = GI50 up to about 1.1 µM and inactive = higher.
Assays:
Experiment in all cases: NCI anticancer screen, dose series, 48 h
UACC-257 = test system: UACC-257
NCI-H460 = test system: NCI-H460
HCC 2998 = test system: HCC 2998
BT-549 = test system: BT-549
Hs-578T = test system: Hs-578T
U-251 = test system: U-251
SN12C = test system: SN12C
RXF 393 = test system: RXF 393
SNB-19 = test system: SNB-19
OVCAR-3 = test system: OVCAR-3
HOP-92 = test system: HOP-92
CCRF-CEM = test system: CCRF-CEM
NCI-H226 = test system: NCI-H226
Malme-3M = test system: Malme-3M
OVCAR-5 = test system: OVCAR-5
SK-OV-3 = test system: SK-OV-3
UACC-62 = test system: UACC-62
SNB-75 = test system: SNB-75
MDA-N = test system: MDA-N

Measured: GI50

CC(=O)NC1(NC(C)=O)C2CC(C1Cc1ccccc1)C(C)(C)C2C (configuration not stated)
inactive: UACC-257 > 100 µM | NCI-H460 > 100 µM | HCC 2998 > 100 µM | BT-549 > 100 µM | Hs-578T > 100 µM | U-251 > 100 µM | SN12C > 100 µM | RXF 393 > 100 µM | SNB-19 > 100 µM | OVCAR-3 > 100 µM | HOP-92 > 100 µM | CCRF-CEM > 100 µM | NCI-H226 > 100 µM | Malme-3M > 100 µM | OVCAR-5 > 100 µM | SK-OV-3 > 100 µM | UACC-62 > 100 µM | SNB-75 > 100 µM | MDA-N > 100 µM

Cc1cc(S(=O)(=O)/N=C(\NN)NCC(=O)NN)c(S)cc1Cl
inactive: UACC-257 > 10 µM | NCI-H460 > 10 µM | HCC 2998 8.73 µM | BT-549 > 10 µM | Hs-578T > 10 µM | U-251 > 10 µM | SN12C > 10 µM | RXF 393 > 10 µM | SNB-19 > 10 µM | OVCAR-3 > 10 µM | HOP-92 > 10 µM | CCRF-CEM > 10 µM | NCI-H226 > 10 µM | Malme-3M > 10 µM | OVCAR-5 > 10 µM | SK-OV-3 > 10 µM | UACC-62 > 10 µM | SNB-75 > 10 µM | MDA-N > 10 µM

O=C(O)C1(Cc2ccc3c(c2)CCC3)Cc2ccccc2C1
inactive: UACC-257 > 100 µM | NCI-H460 52.1 µM | HCC 2998 41.9 µM | BT-549 29.8 µM | Hs-578T 73.1 µM | U-251 65.8 µM | SN12C > 100 µM | RXF 393 68.2 µM | SNB-19 > 100 µM | OVCAR-3 71.3 µM | HOP-92 29 µM | CCRF-CEM 62.8 µM | NCI-H226 91 µM | Malme-3M 71.3 µM | OVCAR-5 > 100 µM | SK-OV-3 31 µM | UACC-62 76.6 µM | SNB-75 67.1 µM | MDA-N > 100 µM

COc1cc(C2SC(=N)Nc3c2c(C)nn3C(=O)c2ccc(Cl)cc2)cc(OC)c1OC (configuration not stated)
inactive: UACC-257 > 10 µM | NCI-H460 > 10 µM | HCC 2998 > 10 µM | BT-549 > 10 µM | Hs-578T > 10 µM | U-251 > 10 µM | SN12C > 10 µM | RXF 393 > 10 µM | SNB-19 > 10 µM | OVCAR-3 > 10 µM | HOP-92 > 10 µM | CCRF-CEM > 10 µM | NCI-H226 > 10 µM | Malme-3M > 10 µM | OVCAR-5 > 10 µM | SK-OV-3 > 10 µM | UACC-62 > 10 µM | SNB-75 > 10 µM | MDA-N > 10 µM

C=CCNC(=O)CN(CC(=O)O)C1CCCCC1N(CC(=O)O)CC(=O)O (configuration not stated)
inactive: UACC-257 > 100 µM | NCI-H460 > 100 µM | HCC 2998 > 100 µM | BT-549 > 100 µM | Hs-578T > 100 µM | U-251 > 100 µM | SN12C > 100 µM | RXF 393 > 100 µM | SNB-19 > 100 µM | OVCAR-3 > 100 µM | HOP-92 > 100 µM | CCRF-CEM > 100 µM | NCI-H226 > 100 µM | Malme-3M > 100 µM | OVCAR-5 > 100 µM | SK-OV-3 > 100 µM | UACC-62 > 100 µM | SNB-75 > 100 µM | MDA-N > 100 µM

COc1cc(OC)c2c(c1)OC(c1cccnc1)C(c1ccccc1)C2=O (configuration not stated)
inactive: UACC-257 > 100 µM | NCI-H460 34 µM | HCC 2998 > 100 µM | BT-549 > 100 µM | Hs-578T 49.5 µM | U-251 > 100 µM | SN12C > 100 µM | RXF 393 > 100 µM | SNB-19 > 100 µM | OVCAR-3 86.3 µM | HOP-92 > 100 µM | CCRF-CEM > 100 µM | NCI-H226 > 100 µM | Malme-3M > 100 µM | OVCAR-5 > 100 µM | SK-OV-3 > 100 µM | UACC-62 > 100 µM | SNB-75 > 100 µM | MDA-N 42.7 µM

COc1ccc2c(c1OC)OCC(CN(C)C)C2=O (configuration not stated)
inactive: UACC-257 16.7 µM | NCI-H460 > 44.6 µM | HCC 2998 18.7 µM | BT-549 19.4 µM | Hs-578T 39.1 µM | U-251 18.9 µM | SN12C 18.5 µM | RXF 393 16.6 µM | SNB-19 > 100 µM | OVCAR-3 21.5 µM | HOP-92 4.99 µM | CCRF-CEM 2.15 µM | NCI-H226 > 47.1 µM | Malme-3M 18.5 µM | OVCAR-5 19.1 µM | SK-OV-3 > 43.1 µM | UACC-62 17.1 µM | SNB-75 22.3 µM | MDA-N 18.2 µM

N#CC(c1ccccc1)N(CCOCCOCCN(C(=O)c1ccccc1)C(C#N)c1ccccc1)C(=O)c1ccccc1 (configuration not stated)
inactive: UACC-257 47.1 µM | NCI-H460 81.3 µM | HCC 2998 94.2 µM | BT-549 > 100 µM | Hs-578T > 100 µM | U-251 > 100 µM | SN12C 93.3 µM | RXF 393 > 100 µM | SNB-19 > 100 µM | OVCAR-3 66.8 µM | HOP-92 43.8 µM | CCRF-CEM 58.5 µM | NCI-H226 > 100 µM | Malme-3M 93.5 µM | OVCAR-5 > 100 µM | SK-OV-3 > 100 µM | UACC-62 53.6 µM | SNB-75 > 100 µM | MDA-N > 100 µM
